How the values were obtained:
[1] = system: human neutrophils; experiment: Apoptosis rate of isolated human neutrophil granulocytes (sub-G1 cells, propidium iodide, flow cytometry); format: cell-based; conditions: for prevention of the reduction of the apoptosis rate caused by CNP with or without budenoside / background apoptosis rate: Experiment 7, 1 mM test substance, 16 h; for prevention of the reduction of the apoptosis rate caused by CNP with or without budenoside: young volunteers; for background apoptosis rate: neutrophils from young volunteers
Experimental: The effect of ectoine on the apoptosis was investigated by way of human neutrophils. Neutrophils from young, healthy donors (3 male and 2 female) were isolated and treated with the amounts of ectoine (mM) indicated. Treatment was carried out with ectoine alone (open columns) and with 33 μg/ml of CNP (black columns). Ectoine was not administered in the control group (C).
The apoptotic cells were quantified in the following manner: The neutrophils were suspended in 300 μl of hypotonic solution containing propidium iodide (PI). The fluorescence of PI was determined by means of flow cytometry (FACScan cytometer, BD Biosciences). The results are shown as percentage of hypodiploidal DNA (sub-G1), corresponding to fragmented DNA which is characteristic of apoptotic cells.
The effect of ectoine on the apoptosis was investigated by way of human neutrophils. Neutrophils of young, healthy donors (3 male and 2 female) were isolated and pretreated for 2 hours with PBS (dark columns) and with 1 mM of ectoine (light columns). Subsequently, treatment took place with 33 μg/ml of carbon nanoparticles (ufCB: ultrafine carbon black), 300 nM LTB4, 20 ng/ml GM CSF or 1 μM of dexamethasone, respectively no treatment with proinflammatory factors. (†: significant difference with respect to control group; *: significant difference with respect to neutrophils treated with proinflammatory factors and PBS only; quantification of the apoptotic cells analogous to Experiment 2).
The neutrophil granulocytes were pretreated for 2 hours with 1 mM of ectoine resp. PBS following which treatment took place for 16 hours with 33 μg/ml CNP, 300 nM LTB4, 20 ng/ml GMCSF or PBS. […] (dark columns: pretreatment with ectoine; light columns: pretreatment with PBS; *: significant difference with respect to control group without CNP or inflammation mediators; §: significant difference with respect to the treatment without ectoine; quantification of the apoptotic cells analogously to Experiment 2).
For Experiments 5 to 7 neutrophil granulocytes were obtained from blood samples. Groups 1 and 2 consisted of persons who participated in a current patient study. Male patients (aged 40 to 80 years) with stable COPD history (GOLD III/IV) and healthy control patients from an identical age group.
The influence of ectoine in combination with the corticosteroid budesonide on the apoptosis rates of neutrophils is illustrated in FIG. 5. Sub-G1-cells were measured after propidium iodide coloration (FACS-flow cytometry). Cells: primary, peripheral neutrophils. Isolation of the neutrophils by Percoll® centrifugation. Cultivation of 2×10^6 neutrophils in the presence of 33 μg/ml CNP, 300 nM LTB4, 20 ng/ml GM-CSF, 1 μM budesonide, 1 mM ectoine and combinations thereof for 16 h. FIG. 5 A: cells cumulated from all samples (n=15), FIG. 5 B: cells from COPD patients (n=5), FIG. 5 C: cells from healthy age control group (n=5), FIG. 5 D: cells from young volunteers (n=5).
Sub-G1-cells were measured after propidium iodide coloration (FACS-flow cytometry). Cells: primary, peripheral, human neutrophils. Isolation of the neutrophils by Percoll® centrifugation and cultivation of 2×10^6 neutrophils in the presence of 33 μg/ml CNP, 1 μM budesonide, 1 mM ectoine, 1 mM urea, 1 mM ectoine amide and combinations thereof for 16 h. The cells were obtained from young volunteers (group 3), n=5, bud=budenoside. Two additional test substances (urea and the ectoine amide of 2-hydroxy-5-aminobenzoic acid) were examined to check whether they were capable of inhibiting anti-apoptotic effects on neutrophils.

[2] = system: Mcl-1; experiment: Mcl-1 protein level in human primary peripheral neutrophils (western blot); format: cell-based; conditions: Experiment 6; 1 mM ectoine with 1 μM budesonide, also in the presence of 33 μg/ml CNP, 6 h
Experimental: (§1) The influence of ectoine in combination with budenoside on anti-apoptotic signals can be seen from FIG. 6. With selected samples of neutrophils relevant signals were detected via protein kinase B (Akt) and Mcl-1 by measurement of the Akt phosphorylation and the Mcl-1 protein level, with human primary peripheral neutrophils being used as cells. Isolation of the neutrophils by Percoll® centrifugation, the cultivation of 2×10^6 neutrophils in the presence of 33 μg/ml CNP, 1 μM budesonide, 1 mM ectoine and combinations thereof for 6 h. A protein isolation, western blot, luminescence on x-ray films was effected of material from each 3 COPD patients and 3 persons from the corresponding age control group.

[3] = system: neutrophils; experiment: Neutrophil inflammation reactions in rats with carbon nanoparticles intratracheally administered; format: in vivo
Excerpt: Neutrophil inflammation reactions were examined in rats with carbon nanoparticles intratracheally administered. This involved administration both with and without ectoine. […] In the first place, the liberation of cinc-1 is initially due to epithelial cells and macrophages, whereas later on the liberation caused by the great amount of ultimately existing neutrophils dominates.
It thus follows that ectoine cannot only be used on a preemptive basis but also for the treatment of an already existing inflammation.
Carbon nanoparticles (CNP, 14 nm, Printex 90, Degussa, Frankfurt, Germany) were suspended in a phosphate buffered salt solution (PBS) by means of ultra-sonic treatment. Similarly, a 0.1 and a 1 mM solution of ectoine was produced in PBS. 0.4 ml of the CNP particle suspension was administered intratracheally to Fisher 344 female rats. Treatment with 0.4 ml of the ectoine solutions, respectively PBS took place after one and two days. The rats were sacrificed on the third day, their lungs purged with 4×5 ml of PBS each. The cells of the individual animals were suspended in 1 ml of PBS and centrifuged. The pellets were washed with PBS once and resuspended in 300 μl of hypotonic solution (0.1% sodium citrate, 0.1% triton×100) containing 50 μg/ml of propidium iodide (PI). To determine the rate of apoptosis a fluorescence measurement was finally performed.

[4] = system: protein kinase B (Akt); experiment: Akt phosphorylation in human primary peripheral neutrophils (western blot); format: cell-based; conditions: Experiment 6; 1 mM ectoine with 1 μM budesonide, also in the presence of 33 μg/ml CNP, 6 h
Experimental: as §1

[5] = ectoine administered repeatedly after inflammation reaction triggered off several times

Row | SMILES | prevention of the reduction of the apoptosis rate caused by CNP with or without budenoside ([1]; 33 μg/ml CNP, 1 μM budesonide) | background apoptosis rate [1] | effectiveness compared with ectoine ([1]; cf. FIG. 7) | Mcl-1 protein level, ectoine against budesonide effect [2] | reduction of the apoptosis rate caused by CNP ([1]; Experiment 2, neutrophils from young healthy donors, 33 μg/ml CNP, significant amounts of ectoine) | apoptosis rate reduced by inflammatory stimulants ([1]; Experiment 4, COPD and non-COPD patients, 2 h pretreatment 1 mM ectoine, then 16 h 33 μg/ml CNP, 300 nM LTB4 or 20 ng/ml GMCSF) | anti-apoptotic effect of proinflammatory substances combined with budesonide, with ectoine ([1]; Experiment 5, CNP, LTB4, GM-CSF combined with 1 μM budesonide, 1 mM ectoine) | anti-apoptotic effect of budesonide, with ectoine ([1]; Experiment 5, pretreatment 1 mM ectoine, 1 μM budesonide, no proinflammatory substances, all groups) | compensation of the reduction of the apoptosis rate due to pro-inflammatory factors ([1]; isolated human neutrophil granulocytes, CNP, LTB4 or GM-CSF) | apoptosis rate, ectoine alone ([1]; neutrophils without previous treatment with pro-inflammatory factors) | amount of neutrophils [3, 5] | cinc-1 level [3, 5] | liberation of cinc-1 ([3]; rats, carbon nanoparticles intratracheally with ectoine, after two days) | amount of neutrophils ([3]; rats, carbon nanoparticles intratracheally with ectoine, after two days, in comparison to the placebo group) | effect of ectoine given after commencement of the inflammatory reaction ([3]; two doses, one and two days after commencement of the inflammatory reaction) | Akt phosphorylation, ectoine against budesonide effect [4]
1 | CC1=NCCC(C(=O)Nc2ccc(O)c(C(=O)O)c2)N1 (stereo not drawn) [2-methyl-1,4,5,6-tetrahydropyrimidine-4-carboxylic acid amide of 2-hydroxy-5-aminobenzoic acid] | able to prevent the reduction of the apoptosis rate | did not have an influence on the background apoptosis rate | effectiveness comparable to ectoine itself |  |  |  |  |  |  |  |  |  |  |  |  | 
2 | CC1=NCC[C@@H](C(=O)O)N1 [ectoine, (S)-2-methyl-1,4,5,6-tetrahydropyrimidine-4-carboxylic acid] |  |  |  | capable of counteracting this effect | could virtually be eliminated | resulted in the apoptosis rate to be restored significantly | the anti-apoptotic effect was successfully prevented | obviates the anti-apoptotic effect of the budesonide significantly | can be compensated depending on concentration at least partially | did not result in an increase of the apoptosis rate | diminishing of the amount of neutrophils | lowering of the cinc-1 level | reduction of the liberation of cinc-1 | significant reduction of the amount of neutrophils | virtually had the same effect as an ectoine administration at the time the inflammatory reaction was triggered | capable of counteracting this effect
3 | NC(N)=O [urea, reference compound] | this could not be achieved | did not have an influence on the background apoptosis rate |  |  |  |  |  |  |  |  |  |  |  |  |  | 

From US20140315869A1, “THERAPEUTIC USES OF ECTOINE” (BITOP AG, priority 2011, published 2014)
